{
  "source": "patent US20250344698A1",
  "about": "“A METHOD OF CONTROLLING WEEDS” (SYNGENTA CROP PROTECTION AG, priority 2022, published 2025)",
  "type_in_all_cases": "in vivo",
  "key": {"[1]": {"test_system": "Amaranthus palmeri known PPO inhibitor sensitive population ('Sensitive')", "assay": "Postemergence glasshouse test, dead or alive assessment, PPO inhibitor sensitive population", "details": "14 days after application; for use rate achieving complete control (i.e. no surviving plants): 'Sensitive' population, postemergence; for Average % Survival of 14 repetitions: Sensitive", "text": "(§1) The commercial standard PPO inhibitor fomesafen and compound 8 of the present application were applied to three Amaranthus palmeri populations in order to determine the impact of mutations at codon 128 in PPX2L from the wild-type arginine to a glycine or methionine.\n(§2) Seeds were sown in seed trays containing ericaceous compost and covered with vermiculite. When approximately 1 inch in height plants were transplanted 1 per pot into 3 inch diameter pots containing ericaceous compost. The pots were watered and maintained in a glasshouse providing a 16 H photoperiod of 180 μmol m^−2 s^−1 with temperatures of 24° C. day and 18° C. night and 65% relative humidity until 3 inches tall at which point the herbicides were applied at the use rates specified in Table 1 below to 14 individual plants per rate of each of the biotypes.\n(§3) All treatments were applied as dilutions in reverse osmosis water and with the commercial adjuvant Adigor® at 0.5% by volume. Prior to dilution with water compound 8 was initially dissolved to a 5% solution in a solvent mixture comprising 11.12% Emulsogen EL 360, 44.44% Dowanol DPM and 44.44% N-methyl pyrrolidone. Herbicide applications were carried out in a track sprayer with a flat fan nozzle applying the herbicide treatments at a rate of 200 L/ha^−1.\n(§4) After treatment, the plants were watered and maintained in a glasshouse providing a 16 H photoperiod of 180 μmol m^−2 s^−1 with temperatures of 24° C. day and 18° C. night and 65% relative humidity until 14 days after application at which point they were assessed on a ‘dead or alive’ basis. The plants still alive at this point were classed as surviving the herbicide application and the averaged results of this assessment are presented in Table 1."}, "[2]": {"test_system": "Amaranthus palmeri population homozygous for a glycine at codon 128 in PPX2L ('128G')", "assay": "Postemergence glasshouse test, dead or alive assessment, 128G population", "details": "14 days after application; for Average % Survival of 14 repetitions: R128G", "text": "as §1, §2, §3, §4"}, "[3]": {"test_system": "Amaranthus palmeri population homozygous for a methionine at codon 128 in PPX2L ('128M')", "assay": "Postemergence glasshouse test, dead or alive assessment, 128M population", "details": "14 days after application; for use rate achieving complete control (i.e. no surviving plants): '128M' population, postemergence; for Average % Survival of 14 repetitions: R128M", "text": "as §1, §2, §3, §4"}},
  "data": [
    {"smiles": "CCOC(=O)C1(C)CC(c2cc(-n3c(=O)cc(C(F)(F)F)n(C)c3=O)c(F)cc2Cl)=NO1", "note": "(stereo not drawn) [Compound 8, 3-(2-chloro-4-fluoro-5-(3-methyl-2,6-dioxo-4-trifluoromethyl-3,6-dihydropyrimidin-1(2H)-yl)phenyl)-5-methyl-4,5-dihydroisoxazole-5-carboxylic acid ethyl ester]", "values": [
      {"measurement": "use rate achieving complete control (i.e. no surviving plants)", "setting": "[1]", "result": 8, "unit": "g ai/ha^−1"},
      {"measurement": "Average % Survival of 14 repetitions", "setting": "[1]; 0.25 g ai/ha^−1 postemergence", "result": 100, "unit": "%"},
      {"measurement": "Average % Survival of 14 repetitions", "setting": "[1]; 0.5 g ai/ha^−1 postemergence", "result": 100, "unit": "%"},
      {"measurement": "Average % Survival of 14 repetitions", "setting": "[1]; 1 g ai/ha^−1 postemergence", "result": 50, "unit": "%"},
      {"measurement": "Average % Survival of 14 repetitions", "setting": "[1]; 2 g ai/ha^−1 postemergence", "result": 43, "unit": "%"},
      {"measurement": "Average % Survival of 14 repetitions", "setting": "[1]; 4 g ai/ha^−1 postemergence", "result": 14, "unit": "%"},
      {"measurement": "Average % Survival of 14 repetitions", "setting": "[1]; 8 g ai/ha^−1 postemergence", "result": 0, "unit": "%"},
      {"measurement": "Average % Survival of 14 repetitions", "setting": "[1]; 16 g ai/ha^−1 postemergence", "result": 0, "unit": "%"},
      {"measurement": "Average % Survival of 14 repetitions", "setting": "[1]; 32 g ai/ha^−1 postemergence", "result": 0, "unit": "%"},
      {"measurement": "Average % Survival of 14 repetitions", "setting": "[1]; 64 g ai/ha^−1 postemergence", "result": 0, "unit": "%"},
      {"measurement": "Average % Survival of 14 repetitions", "setting": "[1]; 128 g ai/ha^−1 postemergence", "result": 0, "unit": "%"},
      {"measurement": "use rate achieving complete control (i.e. no surviving plants)", "setting": "[2]; '128G' population, postemergence", "result": 16, "unit": "g ai/ha^−1"},
      {"measurement": "Average % Survival of 14 repetitions", "setting": "[2]; 0.25 g ai/ha^−1 postemergence", "result": 100, "unit": "%"},
      {"measurement": "Average % Survival of 14 repetitions", "setting": "[2]; 0.5 g ai/ha^−1 postemergence", "result": 100, "unit": "%"},
      {"measurement": "Average % Survival of 14 repetitions", "setting": "[2]; 1 g ai/ha^−1 postemergence", "result": 100, "unit": "%"},
      {"measurement": "Average % Survival of 14 repetitions", "setting": "[2]; 2 g ai/ha^−1 postemergence", "result": 100, "unit": "%"},
      {"measurement": "Average % Survival of 14 repetitions", "setting": "[2]; 4 g ai/ha^−1 postemergence", "result": 93, "unit": "%"},
      {"measurement": "Average % Survival of 14 repetitions", "setting": "[2]; 8 g ai/ha^−1 postemergence", "result": 50, "unit": "%"},
      {"measurement": "Average % Survival of 14 repetitions", "setting": "[2]; 16 g ai/ha^−1 postemergence", "result": 0, "unit": "%"},
      {"measurement": "Average % Survival of 14 repetitions", "setting": "[2]; 32 g ai/ha^−1 postemergence", "result": 0, "unit": "%"},
      {"measurement": "Average % Survival of 14 repetitions", "setting": "[2]; 64 g ai/ha^−1 postemergence", "result": 0, "unit": "%"},
      {"measurement": "Average % Survival of 14 repetitions", "setting": "[2]; 128 g ai/ha^−1 postemergence", "result": 0, "unit": "%"},
      {"measurement": "use rate achieving complete control (i.e. no surviving plants)", "setting": "[3]", "result": 16, "unit": "g ai/ha^−1"},
      {"measurement": "Average % Survival of 14 repetitions", "setting": "[3]; 0.25 g ai/ha^−1 postemergence", "result": 100, "unit": "%"},
      {"measurement": "Average % Survival of 14 repetitions", "setting": "[3]; 0.5 g ai/ha^−1 postemergence", "result": 100, "unit": "%"},
      {"measurement": "Average % Survival of 14 repetitions", "setting": "[3]; 1 g ai/ha^−1 postemergence", "result": 100, "unit": "%"},
      {"measurement": "Average % Survival of 14 repetitions", "setting": "[3]; 2 g ai/ha^−1 postemergence", "result": 100, "unit": "%"},
      {"measurement": "Average % Survival of 14 repetitions", "setting": "[3]; 4 g ai/ha^−1 postemergence", "result": 79, "unit": "%"},
      {"measurement": "Average % Survival of 14 repetitions", "setting": "[3]; 8 g ai/ha^−1 postemergence", "result": 57, "unit": "%"},
      {"measurement": "Average % Survival of 14 repetitions", "setting": "[3]; 16 g ai/ha^−1 postemergence", "result": 0, "unit": "%"},
      {"measurement": "Average % Survival of 14 repetitions", "setting": "[3]; 32 g ai/ha^−1 postemergence", "result": 0, "unit": "%"},
      {"measurement": "Average % Survival of 14 repetitions", "setting": "[3]; 64 g ai/ha^−1 postemergence", "result": 0, "unit": "%"},
      {"measurement": "Average % Survival of 14 repetitions", "setting": "[3]; 128 g ai/ha^−1 postemergence", "result": 0, "unit": "%"}
    ]},
    {"smiles": "CS(=O)(=O)NC(=O)c1cc(Oc2ccc(C(F)(F)F)cc2Cl)ccc1[N+](=O)[O-]", "note": "[Fomesafen]", "values": [
      {"measurement": "use rate achieving complete control (i.e. no surviving plants)", "setting": "[1]", "result": 8, "unit": "g ai/ha^−1"},
      {"measurement": "Average % Survival of 14 repetitions", "setting": "[1]; 0.25 g ai/ha^−1 postemergence", "result": 100, "unit": "%"},
      {"measurement": "Average % Survival of 14 repetitions", "setting": "[1]; 0.5 g ai/ha^−1 postemergence", "result": 100, "unit": "%"},
      {"measurement": "Average % Survival of 14 repetitions", "setting": "[1]; 1 g ai/ha^−1 postemergence", "result": 93, "unit": "%"},
      {"measurement": "Average % Survival of 14 repetitions", "setting": "[1]; 2 g ai/ha^−1 postemergence", "result": 71, "unit": "%"},
      {"measurement": "Average % Survival of 14 repetitions", "setting": "[1]; 4 g ai/ha^−1 postemergence", "result": 14, "unit": "%"},
      {"measurement": "Average % Survival of 14 repetitions", "setting": "[1]; 8 g ai/ha^−1 postemergence", "result": 0, "unit": "%"},
      {"measurement": "Average % Survival of 14 repetitions", "setting": "[1]; 16 g ai/ha^−1 postemergence", "result": 0, "unit": "%"},
      {"measurement": "Average % Survival of 14 repetitions", "setting": "[1]; 32 g ai/ha^−1 postemergence", "result": 0, "unit": "%"},
      {"measurement": "Average % Survival of 14 repetitions", "setting": "[1]; 64 g ai/ha^−1 postemergence", "result": 0, "unit": "%"},
      {"measurement": "Average % Survival of 14 repetitions", "setting": "[1]; 128 g ai/ha^−1 postemergence", "result": 0, "unit": "%"},
      {"measurement": "individuals killed", "setting": "[2]; '128G' population, 128 g ai/ha^−1", "result": "5/14"},
      {"measurement": "Average % Survival of 14 repetitions", "setting": "[2]; 0.25 g ai/ha^−1 postemergence", "result": 100, "unit": "%"},
      {"measurement": "Average % Survival of 14 repetitions", "setting": "[2]; 0.5 g ai/ha^−1 postemergence", "result": 100, "unit": "%"},
      {"measurement": "Average % Survival of 14 repetitions", "setting": "[2]; 1 g ai/ha^−1 postemergence", "result": 100, "unit": "%"},
      {"measurement": "Average % Survival of 14 repetitions", "setting": "[2]; 2 g ai/ha^−1 postemergence", "result": 100, "unit": "%"},
      {"measurement": "Average % Survival of 14 repetitions", "setting": "[2]; 4 g ai/ha^−1 postemergence", "result": 100, "unit": "%"},
      {"measurement": "Average % Survival of 14 repetitions", "setting": "[2]; 8 g ai/ha^−1 postemergence", "result": 100, "unit": "%"},
      {"measurement": "Average % Survival of 14 repetitions", "setting": "[2]; 16 g ai/ha^−1 postemergence", "result": 100, "unit": "%"},
      {"measurement": "Average % Survival of 14 repetitions", "setting": "[2]; 32 g ai/ha^−1 postemergence", "result": 93, "unit": "%"},
      {"measurement": "Average % Survival of 14 repetitions", "setting": "[2]; 64 g ai/ha^−1 postemergence", "result": 36, "unit": "%"},
      {"measurement": "Average % Survival of 14 repetitions", "setting": "[2]; 128 g ai/ha^−1 postemergence", "result": 36, "unit": "%"},
      {"measurement": "use rate achieving complete control (i.e. no surviving plants)", "setting": "[3]", "result": 128, "unit": "g ai/ha^−1"},
      {"measurement": "Average % Survival of 14 repetitions", "setting": "[3]; 0.25 g ai/ha^−1 postemergence", "result": 100, "unit": "%"},
      {"measurement": "Average % Survival of 14 repetitions", "setting": "[3]; 0.5 g ai/ha^−1 postemergence", "result": 100, "unit": "%"},
      {"measurement": "Average % Survival of 14 repetitions", "setting": "[3]; 1 g ai/ha^−1 postemergence", "result": 100, "unit": "%"},
      {"measurement": "Average % Survival of 14 repetitions", "setting": "[3]; 2 g ai/ha^−1 postemergence", "result": 100, "unit": "%"},
      {"measurement": "Average % Survival of 14 repetitions", "setting": "[3]; 4 g ai/ha^−1 postemergence", "result": 100, "unit": "%"},
      {"measurement": "Average % Survival of 14 repetitions", "setting": "[3]; 8 g ai/ha^−1 postemergence", "result": 100, "unit": "%"},
      {"measurement": "Average % Survival of 14 repetitions", "setting": "[3]; 16 g ai/ha^−1 postemergence", "result": 93, "unit": "%"},
      {"measurement": "Average % Survival of 14 repetitions", "setting": "[3]; 32 g ai/ha^−1 postemergence", "result": 43, "unit": "%"},
      {"measurement": "Average % Survival of 14 repetitions", "setting": "[3]; 64 g ai/ha^−1 postemergence", "result": 21, "unit": "%"},
      {"measurement": "Average % Survival of 14 repetitions", "setting": "[3]; 128 g ai/ha^−1 postemergence", "result": 0, "unit": "%"}
    ]}
  ]
}
